From patent EP2589390B1, “PHARMACEUTICAL COMPOSITION FOR TREATING CENTRAL AND PERIPHERAL NERVOUS SYSTEM DISEASES OF VASCULAR, TRAUMATIC, TOXIC, HYPOXIC AND […]” (Aktsionernoe Obschestvo "Pharm-Sintez", priority 2010, dated 2012) come the findings set out here.

In this data set the test system is mice bone marrow polychromatophils. Conditions: positive control.
Where [1] appears, read: 20 mg/kg intraperitoneally in male mice.

Excerpt: The Study purpose is to reveal and quantitatively assess the cytogenetic activity (mutagenicity) of the pharmacologic drugs in the mammalian bone marrow polychromatophils. The method's base is the micronuclei cells microscopic registration.
The experimental used the male and female F1(CBAx C57BI6/J) hybrid mice, two-month age, 18 to 20 grams body weight. Every group included 6 animals. The animals were kept under the 12-hour light regime, with freely available water and food. The single and five fold administration protein-polypeptide complex mutagenicity assessment animal experiments were in compliance with the official protocols. Three experimental series with relevant controls were performed: therapeutic dosage: males, single administration; subtoxic dose: males, single administration; and therapeutic dosage: males and females, five fold administration.
The protein-polypeptide complex mutagenicity assessment dose was defined on the basis of the maximum recommended daily therapeutic dose (TD) for human. The 2 ml at 0.1 mg/ml concentration IV administration is recommended. The therapeutic dose for human, including infant, may be 0.05 mg/kg/day. To calculate the mice experimental dose, the conversion factor is recommended to take into account the human and murine body surface area to body mass ratio. In our study it was 8.33.
For the subtoxic dose the maximum possible experimental one was used, 10 mg/kg, as the substance concentration was 0.1 mg/ml; the conventional total substance administered to mice is 0.1 ml per 10 g body weight.
Seven groups of animals, four experimental and three control ones, were formed. […]
The bone marrow cells preparation for the micronuclei account were made in conventional manner, in accordance with the "Micronuclear Test Environmental Factors Mutagenicity Assessment in Mammalia Organs Cells" Guidelines. […] 2000 polychromatophils per animal were then analyzed with coded preparations. At the 500 erythrocytes count the polychromatophil to normochromatic erythrocytes ratio was determined. […]

For `O=P1(N(CCCl)CCCl)NCCCO1` (stereo not drawn) [cyclophosphamide], under setting [1], the “higher micronuclei cells vs. control” value turned out to be 19.6 fold and the micronuclei cells is on record as 62.1 ‰. For the same compound, where the note is “20 mg/kg intraperitoneally, P < 0.005 vs control”, the “polychromatophil to normochromatic erythrocytes ratio” value is given as “shift to the latter ones”.
